# Measured values as given in patent US20040082503A1, “Methods for treatment of diabetes using peptide analogues of insulin” (Neurocrine Biosciences, Inc., priority 1998, published 2004).
# Where “and” joins values, the source holds several entries; their conditions need not be identical. Equal entries are not always repeated.
# What was measured:
# [1] = test system: Insulin B chain (9-23) specific murine T cell clone PD12-2.35; assay: Proliferation of insulin B chain (9-23) specific murine T cell clone PD12-2.35; type: cell-based, mouse (NOD); details: clone PD12-2.35, 50 μM peptide, Exp. 1 and 2; for S.I. (Stimulation Index): cpm with peptide/cpm in medium alone
# Protocol: (§1) Insulin specific NOD T cell lines were established by culturing lymphocytes isolated from islet-infiltrating populations by in vitro stimulation with either porcine insulin at 25 μg/ml and irradiated NOD islet cell in the presence of irradiated NOD spleen cells as antigen presenting cells and cytokines. To obtain the infiltrating lymphocytes the following procedures were performed (see Wegmann et al., Eur. J. Immunol. 24:1853, 1994): the pancreas from the NOD mouse was digested with collagenase and individual islets were isolated manually. The infiltrating lymphocytes were then obtained by mild trypsin digestion of the islets. The insulin specific T cell lines or clones were propagated by serial stimulation in the presence of NOD spleen cells, porcine insulin and lymphokines. Clones were obtained by limiting dilution of the B chain (9-23) specific T cell lines in the presence of the antigen presenting cells and porcine insulin at 25 μg/ml. Wells with a growing population of cells following limiting dilution were expanded in appropriate medium, and after one cycle of growth were tested for reactivity to the B chain (9-23) peptide of insulin by evaluating the proliferative response.
# (§2) Insulin B chain (9-23) (SEQ ID NO:2) specific mouse (NOD) T cell clones were isolated from infiltrated islets as described in Example 2. Peptide analogues with single alanine substitutions were prepared as described in Example 1. The effect of each analogue on T cell proliferation was then evaluated using an assay performed in 96-well flat bottom microtiter plates (see Daniel et al., Eur. J. Immunol. 25:1056, 1995). Briefly 25,000 T cell clones along with 1 million irradiated NOD spleen cells were cultured in the presence of 50 μg/ml of insulin B chain 9-23 peptide or any of the alanine substituted peptides listed below in triplicate sets. The plates were incubated for a total of 72 hours in 7% carbon dioxide atmosphere with a pulse of 1 μCi/well of tritiated thymidine for the last 6-8 hours of culture. Cells were harvested on a glass fiber filter and the associated radioactivity was counted in a liquid scintillation counter. Results are expressed as mean counts per minute of triplicate wells.
# (§3) NOD T cell clones were incubated in the presence of 50 μM of either the native B chain (9-23) peptide or NBI-6024. The data in Table 3 represent the mean of triplicate sample±standard error of the mean. Within Table 3, S.I. (Stimulation Index)=proliferation (cpm) in the presence of the peptide/proliferation (cpm) in medium alone.
# [2] = test system: Insulin B chain (9-23) specific murine T cell clone PD12-4.1; assay: Proliferation of insulin B chain (9-23) specific murine T cell clone PD12-4.1; type: cell-based, mouse (NOD); details: clone PD12-4.1, 50 μM peptide, Exp. 1; for S.I. (Stimulation Index): cpm with peptide/cpm in medium alone
# Protocol: as §1, §2, §3
# [3] = test system: insulin B chain (9-23) responsive T cell lines from diabetic patients; assay: Proliferation of T cell lines from diabetic patients; type: cell-based, human; details: for Stimulation Index: 50 μM peptide
# Protocol: FIGS. 4-6 are histograms illustrating the proliferative response (measured in cpm) of T cell lines from different diabetic patients to the native B chain (9-23) peptide or to representative peptide analogues. Peripheral blood mononuclear cells were isolated from diabetic patients and cultured in the presence of insulin B chain (9-23) peptide. After three rounds of restimulation with insulin B chain (9-23), 1×10^5 T-cells and 7×10^4 irradiated autologous PBMCs were added to each well in a round bottom 96-well plate in complete medium. Cells were cultured for 5 days with NBI-6024 (insulin B chain 9-23 with alanine substitutions at positions 16 and 19), insulin B chain (9-23) or medium only. On day 4, the cells were pulsed with ^3H-thymidine and re-cultured for an additional 18 hours. The cultures were then harvested, counted using liquid scintillation, and the data was expressed as the mean counts per minute (cpm) of replicate samples±standard error of the mean (sem).
# FIG. 7 is a histogram illustrating the proliferative response (measured in cpm) of a T cell line from a diabetic patient to the native B chain (9-23) peptide or to representative peptide analogues containing alanine substitutions as indicated. Peripheral blood mononuclear cells were isolated from diabetic patients and cultured in the presence of insulin B chain (9-23) peptide. After three rounds of restimulation with insulin B chain (9-23), 1×10^5 T-cells and 7×10^4 irradiated autologous PBMCs were added to each well in a round bottom 96-well plate in complete medium. Cells were cultured for 5 days with analogue, insulin B chain (9-23) or medium only (BKG), as indicated. On day 4, the cells were pulsed with ^3H-thymidine and re-cultured for an additional 18 hours. The cultures were then harvested, counted using liquid scintillation, and the data was expressed as the mean counts per minute (cpm) of replicate samples±standard error of the mean (sem).
# Peptide analogues of B chain (9-23) containing alanine substitutions at residues 13, 15, 16 or 17 or the doubly substituted alanine analog A^16, 19 (NBI-6024) were prepared as described in Example 1. T cell lines from diabetic patients were prepared by isolating lymphocytes from the blood of the patient by subjecting the blood to a density gradient separation. Isolated lymphocytes were then cultured in the presence of the insulin B chain (9-23) peptide (10 μM) and recombinant human IL-2 in the presence of 5-10% of autologous serum and irradiated autologous peripheral blood lymphocytes in culture medium. Four to five days later cells were harvested and the cycle repeated for 2 or 3 times.
# Proliferation of the T cell line, in response to the native B chain (9-23) peptide (SEQ ID NO:2) or to the peptide analogs, was measured by culturing 25,000 to 100,000 T cells in the presence of 50,000-200,000 irradiated autologous PBLs and different concentrations of the insulin B chain (9-23) peptide or a peptide analogue in triplicate cultures. Following 4-5 days of culture, including the last 18 hours with radioactive thymidine, cells were harvested and the associated radioactivity was counted in a liquid scintillation counter. Results are expressed as mean counts per minute for each of the peptide analogues tested.
# [4] = test system: NOD mice (spontaneous diabetes); assay: Reduction of incidence of diabetes in NOD mice; type: in vivo, NOD mouse
# [5] = patient number 1 (ID 100) PBLs, CPM with antigen/CPM with medium alone
# [6] = patient number 8 (ID 1100) PBLs
# [7] = listed as Insulin B Chain (9-23)
Substance,"Proliferative response, Mean cpm ± sem [1]",S.I. (Stimulation Index) [1],"Proliferative response, Mean cpm ± sem [2]",S.I. (Stimulation Index) [2],"Stimulation of diabetic patients' T cell lines and clones responsive to native insulin B chain (9-23) ([3]; FIGS. 4-7, Table 5)","Stimulation Index [3, 5]",Stimulation Index ([3]; patient number 2 (ID 200) PBLs),Stimulation Index ([3]; patient number 3 (ID 400) PBLs),Stimulation Index ([3]; patient number 4 (ID 500) PBLs),Stimulation Index ([3]; patient number 5 (ID 600) PBLs),Stimulation Index ([3]; patient number 6 (ID 700) PBLs),Stimulation Index ([3]; patient number 7 (ID 900) PBLs),"Stimulation Index [3, 6]","Reduction of the incidence of diabetes compared to the untreated group ([4]; female NOD mice, 20 mg/kg (400 μg/mouse) s.c. weekly for 12 weeks then every other week until Week 35, p<0.004, FIG. 11)","Incidence of diabetes compared to neurotensin treated or untreated group ([4]; second experiment, NOD mice, 20 mg/kg s.c., FIG. 12)","Proliferative response, Mean cpm ± sem [1, 7]","S.I. (Stimulation Index) [1, 7]","Incidence of diabetes (percent of mice diabetic) ([4]; NOD mice, 400 μg s.c. weekly, 13 treatments, neurotensin as control, FIG. 10)"
NBI-6024: insulin B chain 9-23 with alanine substitutions at positions 16 and 19 (SHLVEALALVAGERG),841 ± 88 cpm and 452 ± 179 cpm,1.22 and 0.91,566 ± 30 cpm,2.63,do not respond,0.9,1.2,1.0,0.9,1.6,1.5,0.9,0.8,60-70%,reduced incidence of diabetes,–,–,–
"Native 9-23: native peptide, residues 9-23 of human insulin B chain (SEQ ID NO:2) (SHLVEALYLVCGERG; Residues 9-23 of human insulin B chain; listed as Homo sapiens) [reference compound]",–,–,"28,593 ± 4664 cpm",132.99,–,9.9,5.3,7.8,2.1,5.8,3.2,2.6,3.7,–,–,"120,886 ± 7,171 cpm and 100,521 ± 1,581 cpm",175.7 and 203.89,reduced the incidence of diabetes
